The subject of data set [1] is HCC4017. The data set can be described thus: MTS viability assay. Format: cell-based, human. Conditions: for Selectivity (HBEC-30KT vs HCC4017): Patient A; for IC50: Patient A cancer line, MTS, 4 days, read-out: Antiproliferative activity IC50, HCC4017. As for the experimental part: (§1) Immortalized normal human bronchial epithelial cells (also provided by Dr. John D. Minna) were cultured in KSFM supplemented with pituitary extract and EGF. For viability assays, cells were plated on 96 well plates and grown overnight. Cells were then exposed to increasing doses of the indicated compounds for 4 days and their viability assayed using the Promega Cell Titer 96 AQueous One kit per the manufacturer’s protocol. All doses were tested in 4–8 replicates. IC50 values were calculated using the in-house software DIVISA.
(In general: Tetrazolium dyes change colour on reduction, which living cells bring about.)

In data set [2] the test system is HCC4018. The data set can be described thus: MTS viability assay. Conditions: for Selectivity (HBEC-34KT vs HCC4018): Patient B; for IC50: Patient B cancer line, MTS, 4 days, read-out: Antiproliferative activity IC50, HCC4018. The data set is classed as cell-based, human. As for the experimental part:
as §1

The subject of data set [3] is HBEC-30KT. The data set can be described thus: MTS viability assay. Format: cell-based, human. As to conditions: Patient A normal line, 4 days, read-out: Antiproliferative activity IC50, HBEC-30KT. As for the experimental part:
as §1, with “Lung cancer cells (kindly provided by Dr. John D. Minna, [13, 21]) were maintained in RPMI 1640 media supplemented with 10% FBS. Immortalized” for “Immortalized”

The test system of data set [4] is HBEC-34KT. The data set can be described thus: MTS viability assay. Conditions: Patient B normal line, 4 days, read-out: Antiproliferative activity IC50, HBEC-34KT. The data set is classed as cell-based, human. As to the method: as §1, with “Lung cancer cells (kindly provided by Dr. John D. Minna, [13, 21]) were maintained in RPMI 1640 media supplemented with 10% FBS. Immortalized” for “Immortalized”

For data set [5], the system named is epigenetically silenced GFP transgene in LDR cells. The data set can be described thus: locus derepression (LDR) assay, GFP induction. As to conditions: for GFP Induc.: Fig 4. Format: cell-based. Further details: key to GFP Induc.: -: —negative. As to the method: LDR cells were maintained in DMEM with L-glutamine and high glucose, 1 mM sodium pyruvate, 0.1 mM MEM non-essential amino acids, 1% v/v penicillin-streptomycin and 10% heat inactivated FBS. Cells were seeded on glass bottom chambers at low-medium density and allowed to attach overnight. Compounds were then added for 24h at the indicated dose and cells were imaged under a fluorescent microscope equipped with a camera using a 20 or 40X objective. All images shown were exposed for identical time.

For data set [6], the target named is T1, partially purified HDAC1 from mouse A20 cells (Mus musculus, UniProt O09106).
T1 construct: from mouse A20 cells was used as enzyme source; endogenous in cells; host or cells: mouse A20 cells
The data set can be described thus: HDAC1 activity assay, partially purified enzyme, [3H]acetate-prelabeled histones. Format: biochemical. Conditions: Table 3; partially purified HDAC1; read-out: HDAC1 IC50. An excerpt:
For inhibition assays, partially purified HDAC1 (70–80 fold enriched relative to crude samples) from mouse A20 cells was used as enzyme source. HDAC1 activity was purified by a combination of anion exchange chromatography (Mono Q), affinity chromatography (Poly-lysin agarose, Heparin Sepharose) and TSK size exclusion chromatography (Jesacher and Loidl, unpublished). HDAC1 protein was identified by immunoblotting using anti mouse HDAC1 antibodies (collaboration with Zymed Laboratories, Inc., San Francisco, California, USA). HDAC activity was determined as described by Sendra et al., [20] using [^3H]acetate-prelabeled chicken reticulocyte histones as substrate. 50 μL of mouse HDAC1 were incubated with different concentrations of compounds for 10 min on ice and 10 μL of total [^3H] acetate pre-labeled chicken reticulocyte histones (4 mg/mL) were added, resulting in a concentration of 41 μM. This mixture was incubated at 37°C for 1 h. The reaction was stopped by addition of 50 μL of 1 M HCl/0.4 M acetylacetate and 1 mL ethylacetate. After centrifugation at 10000 x g for 5 min an aliquot of 600 μL of the upper phase was counted for radioactivity in 3 mL liquid scintillation cocktail.

The test system of data set [7] is HDAC1. As to conditions: Table 4; cited from earlier work.
Data set [8] addresses T2, recombinant HDAC1 (Homo sapiens, UniProt Q13547).
T2 construct: purchased Epigenetek
The data set can be described thus: comparative HDAC inhibition assay (Millipore fluorometric kit). The data set is classed as biochemical. Conditions: recombinant HDAC1, fluorometric substrate; Table 4. As to the method:
(§2) For the direct comparison of HDAC1 vs. HDAC6 inhibition, HDAC activity was analyzed using the HDAC Assay Kit from Millipore (17–356). Briefly, recombinant HDAC1 or recombinant HDAC6 (both purchased from Epigenetek, Purity of HDAC1 is more than 60% and purity HDAC6 is more than 85%). was incubated with the fluorometric HDAC substrate according to the manufacturer’s protocol in the presence of DMSO vehicle or increase compound doses. In a secondary activator reaction, the fluorophore is only cleaved from the deacetylated substrate, allowing for quantification. Fluorescence was quantified on a FLUOstar-Optima or a FLUOstar Omega plate reader (BMG Biosciences).

Data set [9] deals with T3, recombinant HDAC6 (Homo sapiens, UniProt Q9UBN7).
T3 construct: purchased Epigenetek
T3 sequence (Q9UBN7 1-1215): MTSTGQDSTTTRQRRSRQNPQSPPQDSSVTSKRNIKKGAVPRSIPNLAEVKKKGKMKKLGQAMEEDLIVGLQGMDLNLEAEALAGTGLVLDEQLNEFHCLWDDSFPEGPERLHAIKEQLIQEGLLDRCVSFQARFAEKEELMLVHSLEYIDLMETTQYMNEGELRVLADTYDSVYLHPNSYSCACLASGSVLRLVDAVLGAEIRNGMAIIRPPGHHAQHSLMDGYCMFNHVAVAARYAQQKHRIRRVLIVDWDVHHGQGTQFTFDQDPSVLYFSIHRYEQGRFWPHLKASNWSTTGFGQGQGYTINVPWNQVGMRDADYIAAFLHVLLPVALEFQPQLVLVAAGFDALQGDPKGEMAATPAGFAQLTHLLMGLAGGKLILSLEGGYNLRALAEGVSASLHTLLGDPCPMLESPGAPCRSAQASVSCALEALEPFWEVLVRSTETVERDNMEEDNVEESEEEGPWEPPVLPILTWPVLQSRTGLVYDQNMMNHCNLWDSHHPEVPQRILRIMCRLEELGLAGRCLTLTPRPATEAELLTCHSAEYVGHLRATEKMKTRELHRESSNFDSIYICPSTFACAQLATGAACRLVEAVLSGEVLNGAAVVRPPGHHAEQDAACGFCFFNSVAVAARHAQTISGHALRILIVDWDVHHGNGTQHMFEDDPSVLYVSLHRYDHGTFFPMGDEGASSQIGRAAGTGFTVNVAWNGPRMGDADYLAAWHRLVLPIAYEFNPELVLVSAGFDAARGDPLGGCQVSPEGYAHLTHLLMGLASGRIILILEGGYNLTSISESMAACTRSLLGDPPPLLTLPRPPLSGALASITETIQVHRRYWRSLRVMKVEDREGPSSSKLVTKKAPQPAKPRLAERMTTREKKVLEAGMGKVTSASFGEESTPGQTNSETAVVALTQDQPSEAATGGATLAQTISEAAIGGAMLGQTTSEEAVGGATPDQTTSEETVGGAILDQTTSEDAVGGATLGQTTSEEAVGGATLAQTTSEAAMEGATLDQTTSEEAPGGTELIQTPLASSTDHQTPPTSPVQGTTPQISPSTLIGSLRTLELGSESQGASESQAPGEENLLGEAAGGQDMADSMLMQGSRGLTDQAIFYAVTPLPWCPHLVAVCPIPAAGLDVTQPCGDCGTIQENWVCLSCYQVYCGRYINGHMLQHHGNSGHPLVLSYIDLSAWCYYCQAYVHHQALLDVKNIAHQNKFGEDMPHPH
The data set is described as above. The data set is classed as biochemical. As to conditions: for IC50: read-out: HDAC6 IC50. As for the experimental part: as §2

The test system of data set [10] is HDAC1. Conditions: read-out: HDAC1 IC50; Table 4; cited from earlier work.
Data set [11] concerns HDAC6. As to conditions: read-out: HDAC6 IC50; Table 4; cited from earlier work.

Results on 9 compounds are retold here after article PMC4689404, “2-Benzazolyl-4-Piperazin-1-Ylsulfonylbenzenecarbohydroxamic Acids as Novel Selective Histone Deacetylase-6 Inhibitors with Antiproliferative Activity” (PLoS ONE, 2015).

Where two headings read alike, the source gives them in different places.

For orientation: IC50 means the concentration that gives 50% inhibition. As usually defined, the melting point is the temperature of the solid-liquid transition.

T1 sequence (O09106 whole entry): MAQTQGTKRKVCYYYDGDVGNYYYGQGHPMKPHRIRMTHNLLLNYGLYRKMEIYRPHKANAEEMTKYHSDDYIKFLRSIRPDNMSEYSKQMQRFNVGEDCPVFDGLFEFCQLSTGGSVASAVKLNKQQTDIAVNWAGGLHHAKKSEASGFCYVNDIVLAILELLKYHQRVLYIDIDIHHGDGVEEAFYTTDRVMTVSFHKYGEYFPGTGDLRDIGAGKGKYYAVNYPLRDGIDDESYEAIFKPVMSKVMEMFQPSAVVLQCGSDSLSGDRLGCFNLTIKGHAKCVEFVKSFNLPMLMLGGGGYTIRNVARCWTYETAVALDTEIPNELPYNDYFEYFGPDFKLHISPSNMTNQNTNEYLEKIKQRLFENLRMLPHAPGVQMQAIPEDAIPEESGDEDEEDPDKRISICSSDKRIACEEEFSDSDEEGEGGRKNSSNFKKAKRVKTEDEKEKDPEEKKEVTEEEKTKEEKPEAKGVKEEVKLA
T2 sequence (Q13547 whole entry): as the sequence (O09106 whole entry) above, with K8R, E399D, D424E counted along it

As for `C/C=C1\NC(=O)[C@H]2CSSCC/C=C/[C@H](CC(=O)N[C@H](C(C)C)C(=O)N2)OC(=O)[C@H](C(C)C)NC1=O` [Depsi., Depsipeptide, reference compound], in [1], the “Selectivity (HBEC-30KT vs HCC4017)” value turned out to be 0.14. Besides, the IC50 was 0.0065 µM in data set [1], 0.0042 µM in [2], 0.0009 µM in [3] and 0.0013 µM in [4]. Moreover, the “toxicity to normal vs patient-matched cancer cells” value in data set [1] (both paired cell lines) is “more toxic to normal cells than to the patient-matched cancer cells”. Moreover, in [2], the “Selectivity (HBEC-34KT vs HCC4018)” value stood at 0.31.

As to `Cn1c(N2CCN(S(=O)(=O)c3cccc(C(=O)NO)c3)CC2)nc2ccccc21` [Compound 8b, 3-[4-(1-Methyl-Benzimidazol-2-yl)-piperazin-1-sulfonyl]-N -hydroxy-benzamid], the melting point is 167 to 169 °C. Further, the “GFP Induc.” value in [5] is recorded as “-”. The IC50 in data set [6] was determined as 316 µM.

`O=C(NO)c1cccc(S(=O)(=O)N2CCN(c3nc4ccccc4[nH]3)CC2)c1` [Compound 8a, 3-[4(1H -Benzimidazol-2-yl)-piperazin-1-sulfonyl]-N -hydroxy-benzamid] had a melting point of 349 to 350 °C. The “GFP Induc.” value in data set [5] is “-”.

Take `CN1CCc2c(c3ccccc3n2Cc2ccc(C(=O)NO)cc2)C1` [Tubastatin A]: in data set [7], the IC50 is […].

Turning to `O=C(NO)c1ccc(S(=O)(=O)N2CCN(c3nc4ccccc4[nH]3)CC2)cc1` [Compound 9a, 4-[4(1H-Benzimidazol-2-yl)-pipreazin-1-sulfonyl]-N-hydroxy-benzamid], the melting point is 382 to 383 °C (dec.). In data set [5], the “GFP induction / activity in the LDR assay” value was “inactive” and the “GFP Induc.” value is “-”. For the same compound, the IC50 in data set [6] turned out to be 12.4 µM. The 50% inhibitory concentration (IC50) in data set [1] (Homo sapiens, HCC4017, 96 h) is > 10 µM. The “cellular activity” value in data set [1] (MTS viability, lung cancer and normal lines) is “no cellular activity”. Besides, in [2] (Homo sapiens, 96 h), the IC50 was > 10 µM. For the same compound, in data set [3] (Homo sapiens, 96 h), the IC50 was > 10 µM. For the same compound, in data set [4] (Homo sapiens, 96 h), the IC50 is > 10 µM. Further, the IC50 in data set [8] amounted to 6 ± 2.9 µM. In addition, the IC50 in data set [9] (Table 3) came to 1 µM. For the same compound, the “Selectivity Index HDAC1/HDAC6” value in data set [9] (Table 4) is reported as 6.5. Besides, the IC50 in data set [9] (recombinant HDAC6, fluorometric substrate, Table 4) was determined as 0.93 ± 0.75 µM.

`O=C(NO)c1cccc(S(=O)(=O)N2CCN(c3nc4ccccc4o3)CC2)c1` [Compound 8c, 3-(4-Benzoxazol-2-yl-piperazin-1-sulfonyl)-N -hydroxy-benzamid] came in with a melting point of 257 to 262 °C. Also, in [5], the “GFP Induc.” value is on record as “-”. Also, the IC50 in [6] came to 216 µM.

Take `CCC(=O)CCCCC[C@@H]1NC(=O)[C@H]2CCCCN2C(=O)[C@H]([C@@H](C)CC)NC(=O)[C@H](Cc2cn(OC)c3ccccc23)NC1=O` [Apicidin, reference compound]: the IC50 in data set [1] (Homo sapiens, HCC4017, 96 h) was found to be 0.12 µM; in data set [2] (Homo sapiens, 96 h) it was 0.03 µM; in [3] (Homo sapiens, 96 h) it was 0.09 µM; in [4] (Homo sapiens, 96 h) it was 0.79 µM. Also, the “Selectivity (HBEC-30KT vs HCC4017)” value in data set [1] came to 0.75. Besides, in [2], the “Selectivity (HBEC-34KT vs HCC4018)” value was found to be 26.3. Also, the “selectivity higher by a factor compared to compounds 9b-d” value in [2] (cells derived from patient B) is 7–13 fold.

`O=C(NO)c1cccc(S(=O)(=O)N2CCN(c3nc4ccccc4s3)CC2)c1` [Compound 8d, 3-(4-Benzothiazol-2-yl-piperazin-1-sulfonyl)-N -hydroxy-benzamid] registered a melting point of 207 to 210 °C. Further, the “GFP Induc.” value in data set [5] is “-”. For the same compound, the IC50 in data set [6] stood at 140 µM.

Consider `CC(/C=C/C(=O)NO)=C\[C@@H](C)C(=O)c1ccc(N(C)C)cc1` [TSA, trichostatin A, reference compound], for which the IC50 in data set [1] was 0.073 µM; in data set [2], 0.023 µM; in data set [3], 0.285 µM; in data set [4], 0.346 µM; in data set [10], […]; in [11], 0.0086 ± 0.0014 µM.
